In one data set the target is T1, KDR (Homo sapiens, UniProt P35968).
T1 construct: purchased BPS Bioscience, CA, USA
The data set is described as follows: KDR enzymatic assay (Caliper LifeSciences technology). Type of data set: biochemical. An outline of the steps:
(§1)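 Off-chip mobility-shift assay quantifying conversion of a fluorescent peptide substrate to phosphorylated product. Reactions in 100 mM HEPES pH 7.5, 1 mM DTT, 1 mM MgCl2, 0.015% Brij-35, 90 min at 25 C, stopped with EDTA. IC50 from sigmoidal fit of percent conversion versus inhibitor concentration.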

The target of a further data set is T2, BTK (Homo sapiens, UniProt Q06187).
T2 construct: purchased Carna Bioscience, Kobe, Japan
The experiment in a line: BTK enzymatic assay (Caliper LifeSciences technology). Type of data set: biochemical. The protocol: Enzymatic Assays Using the Caliper LifeSciences Technology
The assays described here are performed on the Caliper Life Sciences LC3000 system This technology provides data on enzyme activity via measurement of the relative amounts of phosphorylated or unphosphorylated fluorescently labelled substrate peptide at the end of an enzymatic reaction. These different states of peptide are resolved by applying a potential difference across the sample. The presence of the charged phosphate group on the product (as opposed to the substrate) causes a different peptide mobility between the two peptides. This is visualized by excitation of the fluorescent label on the substrate and product peptides and represented as peaks within the analysis software.
In order to measure inhibitor activity of kinase inhibitors on this technology, a TTP Mosquito liquid handling instrument is used to place 0.25 ul of the appropriate concentration of inhibitor in 100% DMSO (for a dose response curve calculation) into each well of a 384-well plate. To this reaction components are added to a final volume of 25 ul. The table below indicates the sequences and concentrations for the assays described in this report. Standard components are 1 mM DTT (Sigma, D0632), 1 mM MgCl2 (Sigma, M1028), 100 mM HEPES pH 7.5 (Calbiochem, 391338), 0.015% Brij-35 (Sigma, B4184).
The reaction is incubated for 90 min at 25 C, and then stopped by the addition of 70 ul of Stop buffer (100 mM HEPES pH 7.5, 0.015% Brij-35, 10 mM EDTA (Sigma, E7889)).
The plate is read on a Caliper LC 3000 in an Off-Chip mobility shift assay format, on a 12-sipper chip. Unphosphorylated substrate and phosphorylated product peptide resolve as separate peaks allowing direct measurement of percentage of conversion of substrate to product. The percent conversion can be plotted against concentration of inhibitor to produce a sigmoidal dose response curve, from which an IC50 can be calculated using GeneData Condoseo or a similar product. Cellular activity assays

For the next data set, the target named is T3, Syk (Homo sapiens, UniProt P43405).
T3 construct: purchased BPS Bioscience, CA, USA
The data set is described as follows: Syk enzyme assay (flash plate / Caliper mobility shift). The format is biochemical. An outline of the steps:
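Flashplate format used 2.5 nM SYK, 400 nM biotinylated peptide and 10 µM ATP with 33P tracer, pH 7.5, 1 h at 30 °C, read by radioactivity. Caliper format ran 90 min at 25 °C in HEPES pH 7.5, reading percent peptide conversion by mobility shift. IC50s came from dose-response curves.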

A further data set deals with T4, Src (Homo sapiens, UniProt P12931).
T4 construct: purchased Carna Bioscience, Kobe, Japan
The data set is described as follows: cSrc enzymatic assay (Caliper LifeSciences technology). The format is biochemical. An outline of the steps:
as §1

The target of a further data set is T5, ZAP-70 (Homo sapiens, UniProt P43403).
T5 construct: purchased BPS Bioscience, CA, USA
T5 sequence (P43403 1-619): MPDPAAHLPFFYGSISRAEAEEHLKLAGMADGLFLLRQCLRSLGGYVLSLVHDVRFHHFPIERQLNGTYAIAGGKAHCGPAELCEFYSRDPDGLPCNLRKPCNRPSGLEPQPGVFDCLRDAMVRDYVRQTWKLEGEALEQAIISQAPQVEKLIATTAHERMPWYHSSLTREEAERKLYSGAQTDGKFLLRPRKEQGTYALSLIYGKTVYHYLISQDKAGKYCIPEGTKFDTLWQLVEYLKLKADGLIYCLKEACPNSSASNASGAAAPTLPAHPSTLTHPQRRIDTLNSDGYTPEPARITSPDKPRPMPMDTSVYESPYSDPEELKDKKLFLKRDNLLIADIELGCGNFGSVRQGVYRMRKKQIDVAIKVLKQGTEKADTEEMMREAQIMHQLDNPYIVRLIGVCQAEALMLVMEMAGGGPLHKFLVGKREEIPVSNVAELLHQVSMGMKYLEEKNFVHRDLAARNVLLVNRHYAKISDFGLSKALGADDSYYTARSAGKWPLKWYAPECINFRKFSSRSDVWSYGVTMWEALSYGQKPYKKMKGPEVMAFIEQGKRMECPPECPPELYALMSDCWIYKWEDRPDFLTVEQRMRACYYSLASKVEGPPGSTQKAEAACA
The experiment in a line: Zap70 enzymatic assay (Caliper LifeSciences technology). The format is biochemical. An outline of the steps: as §1

The test system of a further data set is Ramos cells. The data set is described as follows: BCR crosslinking-induced BLNK phosphorylation (BLNK cell assay). Type of data set: cell-based. To be noted: Homo sapiens. The protocol: 1. BCR Crosslinking-Induced BLNK Phosphorylation
Ramos cells incubated overnight in IMDM medium containing 5% FCS were resuspended in IMDM medium without serum (3.3×10^6 cells/ml). 90 μl of cell suspension (300′000 cells) were incubated with 10 μl of SYK inhibitors (in 3% DMSO) for 20 minutes at 37° C., in 96 well plates. After preincubation with inhibitors, cells were activated with 10 μg/ml of goat antihuman anti-IgM for 10 minutes at 37° C. After stimulation, cells were fixed by addition of 80 μl of 4% paraformaldehyde followed by a 10 minutes incubation at RT and […] in 0.1% Triton X-100 in PBS. BLNK phosphorylation was detected by flow cytometry after staining of the cells with anti-BLNK-pY84-PE antibodies from BD pharmingen, for 45 minutes at RT. […]

The next data set addresses GCN2 (Homo sapiens, UniProt Q9P2K8). The data set is described as follows: GCN2 kinase TR-FRET (Lanthascreen) assay. Type of data set: biochemical. The source says: GCN2: Assay Principle & Conditions
This assay can quantificate the activity of the serin kinase GCN2 (general control non-derepressible-2).
This kinase is involved in the stress metabolism of cells. It is activated upon starvation (amino acid depletion). Its natural substrate is eIF2a (eukaryotic initiation factor 2 alpha subunit), a translation factor, which gets activated (phosphorylated) by GCN2 in case of an amino acid bottleneck in the cells. This in turn leads to a halt of the protein synthesis. Inhibition of GCN2 results in stopping this mechanism: The cell can not stop protein production upon “starvation” stress.
The assay is run in two steps: the enzymatic reaction and the detection step. In the first step GCN2 is incubated with 10 μM ATP and 80 nM of the GFP-labelled substrate eIF2alpha at room temperature.
The enzymatic reaction is stopped by addition of EDTA. The amount of phosphorylated eIF2alpha is determined by TR-FRET (Lanthascreen): A complex is formed consisting of antibody and GFP labelled phospho-eIF2a, which allows a FRET upon exitation at 340 nm.
The GCN2-activity is directly proportional to the ratio of fluorescence units at the emission wavelengthh 520 nm (phosphopeptide-sensitive wavelength=emission of GFP) to the units at 495 nm (reference wavelength=emission of Terbium-chelate).
Assay Procedure • 4 uL enzyme solution (in assay buffer) • 1.5 uL compound (in cmpd dilution buffer/6.3% DMSO) • Incubation 20 min at RT • 4 uL substrate/ATP mix (in assay buffer) • Incubation 90 min at RT • 10 uL stop/detection mix (in antibody dilution buffer) • Incubation 60 min at RT • Readout Lanthascreen 340/495/5204
(In general: In TR-FRET formats the signal depends on donor and acceptor labels being close together.)

The conditions of data set [1]: murine model of RA, cited from earlier work.
For data set [2] the following is noted: RA Phase II studies in humans; cited from earlier work.
For the next data set, the system named is 3LL lung carcinoma. The following applies: s.c. 3LL lung carcinoma in mice; cited from earlier work.

T4 sequence (P12931 whole entry): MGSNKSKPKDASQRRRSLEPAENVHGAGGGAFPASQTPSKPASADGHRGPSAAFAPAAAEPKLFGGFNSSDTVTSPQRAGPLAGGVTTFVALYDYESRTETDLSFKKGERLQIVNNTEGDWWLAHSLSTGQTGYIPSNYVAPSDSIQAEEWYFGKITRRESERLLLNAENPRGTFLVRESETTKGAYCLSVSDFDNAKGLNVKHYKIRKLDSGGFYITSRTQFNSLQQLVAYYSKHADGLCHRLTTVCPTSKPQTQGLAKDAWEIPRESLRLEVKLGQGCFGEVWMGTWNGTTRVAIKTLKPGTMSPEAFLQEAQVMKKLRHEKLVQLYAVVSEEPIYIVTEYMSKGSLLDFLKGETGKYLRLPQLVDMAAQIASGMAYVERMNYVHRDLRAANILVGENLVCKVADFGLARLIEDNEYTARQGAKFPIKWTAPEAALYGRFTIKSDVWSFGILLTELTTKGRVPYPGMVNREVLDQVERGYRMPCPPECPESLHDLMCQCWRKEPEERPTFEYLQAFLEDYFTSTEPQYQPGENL
T2 sequence (Q06187 whole entry): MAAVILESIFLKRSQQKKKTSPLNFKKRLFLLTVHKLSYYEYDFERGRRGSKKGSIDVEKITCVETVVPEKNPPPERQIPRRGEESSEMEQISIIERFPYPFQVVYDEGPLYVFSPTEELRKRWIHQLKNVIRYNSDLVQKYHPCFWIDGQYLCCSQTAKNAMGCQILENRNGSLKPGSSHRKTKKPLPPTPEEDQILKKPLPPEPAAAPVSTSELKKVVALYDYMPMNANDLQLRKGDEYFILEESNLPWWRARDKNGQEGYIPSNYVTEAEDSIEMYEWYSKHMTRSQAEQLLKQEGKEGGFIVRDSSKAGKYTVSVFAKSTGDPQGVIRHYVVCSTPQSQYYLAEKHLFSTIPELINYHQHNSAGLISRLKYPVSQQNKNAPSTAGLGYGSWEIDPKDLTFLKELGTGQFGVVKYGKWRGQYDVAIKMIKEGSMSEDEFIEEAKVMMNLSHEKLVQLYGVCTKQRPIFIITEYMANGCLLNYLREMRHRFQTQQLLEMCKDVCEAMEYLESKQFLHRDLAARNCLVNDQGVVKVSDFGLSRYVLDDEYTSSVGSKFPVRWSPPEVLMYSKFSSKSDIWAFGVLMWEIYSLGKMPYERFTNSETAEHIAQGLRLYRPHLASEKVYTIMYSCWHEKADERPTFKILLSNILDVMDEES
Chain of GCN2 (Q9P2K8 whole entry, species assumed): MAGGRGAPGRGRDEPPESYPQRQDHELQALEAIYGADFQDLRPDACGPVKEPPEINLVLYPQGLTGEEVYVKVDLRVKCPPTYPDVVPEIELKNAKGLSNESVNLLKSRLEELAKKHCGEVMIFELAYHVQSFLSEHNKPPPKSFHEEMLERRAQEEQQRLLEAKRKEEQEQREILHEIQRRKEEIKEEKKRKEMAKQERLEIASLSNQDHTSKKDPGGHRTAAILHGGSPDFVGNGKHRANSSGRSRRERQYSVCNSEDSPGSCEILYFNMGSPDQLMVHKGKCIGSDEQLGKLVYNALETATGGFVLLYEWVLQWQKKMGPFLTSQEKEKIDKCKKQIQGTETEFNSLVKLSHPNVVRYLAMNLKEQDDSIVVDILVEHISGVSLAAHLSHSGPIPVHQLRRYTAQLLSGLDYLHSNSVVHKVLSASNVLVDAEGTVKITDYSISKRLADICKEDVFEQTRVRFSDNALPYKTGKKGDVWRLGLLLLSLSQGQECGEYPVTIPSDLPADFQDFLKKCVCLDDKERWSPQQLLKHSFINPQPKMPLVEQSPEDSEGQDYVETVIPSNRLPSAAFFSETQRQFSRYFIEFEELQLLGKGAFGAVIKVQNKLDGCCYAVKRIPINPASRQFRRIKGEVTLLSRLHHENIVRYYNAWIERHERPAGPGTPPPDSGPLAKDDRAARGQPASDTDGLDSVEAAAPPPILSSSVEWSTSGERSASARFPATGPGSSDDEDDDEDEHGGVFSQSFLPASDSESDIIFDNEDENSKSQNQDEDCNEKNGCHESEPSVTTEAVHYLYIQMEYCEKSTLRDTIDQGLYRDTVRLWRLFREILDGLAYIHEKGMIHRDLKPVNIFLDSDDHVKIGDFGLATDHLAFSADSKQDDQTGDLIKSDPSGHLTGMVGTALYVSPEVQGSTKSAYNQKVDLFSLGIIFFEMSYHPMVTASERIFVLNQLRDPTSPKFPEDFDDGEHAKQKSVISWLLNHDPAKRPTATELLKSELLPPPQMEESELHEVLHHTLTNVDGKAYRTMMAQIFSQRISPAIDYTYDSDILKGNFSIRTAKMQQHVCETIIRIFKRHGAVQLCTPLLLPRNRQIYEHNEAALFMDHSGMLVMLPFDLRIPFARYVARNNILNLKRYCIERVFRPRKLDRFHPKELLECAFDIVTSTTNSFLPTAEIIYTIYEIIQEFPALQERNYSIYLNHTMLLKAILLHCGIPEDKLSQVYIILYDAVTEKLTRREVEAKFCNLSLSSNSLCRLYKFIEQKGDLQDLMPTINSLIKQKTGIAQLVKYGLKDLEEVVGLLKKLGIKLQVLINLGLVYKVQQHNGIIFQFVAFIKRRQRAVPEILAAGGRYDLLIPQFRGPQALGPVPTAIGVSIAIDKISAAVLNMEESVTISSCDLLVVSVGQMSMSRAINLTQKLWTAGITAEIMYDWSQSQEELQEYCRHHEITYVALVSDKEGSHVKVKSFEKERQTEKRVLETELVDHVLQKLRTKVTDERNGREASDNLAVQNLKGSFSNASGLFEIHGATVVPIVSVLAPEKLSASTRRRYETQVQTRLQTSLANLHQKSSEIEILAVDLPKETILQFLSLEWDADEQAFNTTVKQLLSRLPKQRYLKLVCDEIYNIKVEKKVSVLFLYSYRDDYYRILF
T1 sequence (P35968 20-1356): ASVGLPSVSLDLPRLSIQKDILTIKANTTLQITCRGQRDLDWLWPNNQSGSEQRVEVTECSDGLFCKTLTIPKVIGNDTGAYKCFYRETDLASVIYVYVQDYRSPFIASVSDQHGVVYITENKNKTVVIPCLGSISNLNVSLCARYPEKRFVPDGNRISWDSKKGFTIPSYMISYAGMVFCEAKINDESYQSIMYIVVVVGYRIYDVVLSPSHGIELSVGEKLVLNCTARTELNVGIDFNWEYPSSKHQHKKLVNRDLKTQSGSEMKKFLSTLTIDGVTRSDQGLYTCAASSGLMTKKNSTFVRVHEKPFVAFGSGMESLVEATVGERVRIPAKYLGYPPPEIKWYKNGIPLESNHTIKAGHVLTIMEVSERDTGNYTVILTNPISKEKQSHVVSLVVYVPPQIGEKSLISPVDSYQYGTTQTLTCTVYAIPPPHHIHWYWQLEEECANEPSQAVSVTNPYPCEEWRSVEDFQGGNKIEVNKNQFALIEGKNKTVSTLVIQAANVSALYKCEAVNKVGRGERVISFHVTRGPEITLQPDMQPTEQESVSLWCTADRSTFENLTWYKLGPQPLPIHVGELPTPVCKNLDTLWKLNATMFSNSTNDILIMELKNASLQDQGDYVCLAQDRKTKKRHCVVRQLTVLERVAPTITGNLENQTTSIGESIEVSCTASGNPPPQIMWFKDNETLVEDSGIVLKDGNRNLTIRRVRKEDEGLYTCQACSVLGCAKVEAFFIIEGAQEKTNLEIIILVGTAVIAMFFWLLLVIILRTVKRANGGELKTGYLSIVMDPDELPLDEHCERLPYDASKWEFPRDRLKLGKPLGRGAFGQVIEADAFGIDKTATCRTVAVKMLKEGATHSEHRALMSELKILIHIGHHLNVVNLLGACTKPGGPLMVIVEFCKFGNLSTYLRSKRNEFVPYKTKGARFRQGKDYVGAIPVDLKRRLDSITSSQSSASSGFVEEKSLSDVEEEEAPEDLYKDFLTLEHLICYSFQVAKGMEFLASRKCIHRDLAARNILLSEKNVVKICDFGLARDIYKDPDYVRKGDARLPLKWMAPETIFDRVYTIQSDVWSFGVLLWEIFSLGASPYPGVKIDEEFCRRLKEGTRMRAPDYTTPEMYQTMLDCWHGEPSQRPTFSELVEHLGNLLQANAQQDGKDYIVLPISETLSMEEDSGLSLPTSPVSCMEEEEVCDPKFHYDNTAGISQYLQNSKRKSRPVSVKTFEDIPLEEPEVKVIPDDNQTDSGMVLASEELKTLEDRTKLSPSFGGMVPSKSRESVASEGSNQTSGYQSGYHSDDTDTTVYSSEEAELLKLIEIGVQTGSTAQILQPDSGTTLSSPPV

On to `O=C1Nc2cc(Nc3nc4c(-c5nccs5)nccn4n3)ccc2OC1(F)F` [Example C6, 2,2-Difluoro-6-(8-thiazol-2-yl-[1,2,4]triazolo[1,5-a]pyrazin-2-ylamino)-4H-benzo[1,4]oxazin-3-one], for which the IC50 against KDR, on BTK, at Syk and against Src was 3 to 50 µM each time.
Take `COc1cc(Nc2nc3c(-c4ccccc4)nccn3n2)cc(OC)c1` [Example C8, (3,5-Dimethoxy-phenyl)-(8-phenyl-[1,2,4]triazolo[1,5-a]pyrazin-2-yl)-amine]: the IC50 was below 0.3 µM against KDR, 3 to 50 µM on BTK and below 0.3 µM at Syk.
With `c1ccc(Nc2nc3c(-c4nccs4)nccn3n2)cc1` [Example C14, Phenyl-(8-thiazol-2-yl-[1,2,4]triazolo[1,5-a]pyrazin-2-yl)-amine], the IC50 against ZAP-70, on KDR, against BTK, on Syk and at Src was 3 to 50 µM each time.
With `COc1cc(Nc2nc3c(-c4cccnc4)nccn3n2)cc(OC)c1` [Example C19, (3,5-Dimethoxy-phenyl)-(8-pyridin-3-yl-[1,2,4]triazolo[1,5-a]pyrazin-2-yl)-amine], the IC50 is 3 to 50 µM on ZAP-70; 0.3 to 3 µM against KDR; 3 to 50 µM against BTK; 3 to 50 µM in the data set with Ramos cells; below 0.3 µM at Syk; 0.3 to 3 µM against Src.
For the molecule `c1ccc(Cn2ncc3ccc(Nc4nc5c(-c6nccs6)nccn5n4)cc32)cc1` [Example C24, (1-Benzyl-1H-indazol-6-yl)-(8-thiazol-2-yl-[1,2,4]triazolo[1,5-a]pyrazin-2-yl)-amine], the IC50 on ZAP-70 was 3 to 50 µM; on BTK, 3 to 50 µM; on Syk it was 0.3 to 3 µM.
For the molecule `Cc1cccc(Nc2nc3c(-c4ccc(N5CCOCC5)cc4)nccn3n2)c1` [Example E4], the IC50 on GCN2 was below 10 µM.
The molecule `COc1cc(OC)cc(-c2nccn3nc(Nc4cc(C)cc(C)c4)nc23)c1` [Example E5] came in with an IC50 against GCN2 below 10 µM.
On to `Cc1cc(C)cc(Nc2nc3c(-c4cccnc4)nccn3n2)c1` [Example E6], for which, at GCN2, the IC50 is below 10 µM.
Molecule `Cn1ccnc1Sc1ccc(Nc2nc3c(-c4ccccc4)nccn3n2)cc1Cl` [Example E7] yielded an IC50 against GCN2 below 10 µM.
In turn, `c1ccc(Cn2ncc3ccc(Nc4nc5c(-c6ccccc6)nccn5n4)cc32)cc1` [Example E8] registered an IC50 on GCN2 below 10 µM.
The molecule `c1ccc(Cn2ncc3ccc(Nc4nc5c(-c6nccs6)nccn5n4)cc32)cc1` [Example E9] displayed an IC50 at GCN2 below 10 µM.
In turn, `COc1ccc(Nc2nc3c(-c4cccnc4)nccn3n2)cc1OC` [Example E10] displayed an IC50 on GCN2 below 10 µM.
In the case of `COc1cc(Nc2ncc(F)c(Nc3ccc4c(n3)NC(=O)C(C)(C)O4)n2)cc(OC)c1OC` [Example R406], the clinical scores result in [1] (orally available Syk inhibitor) is recorded as “significant improvement of clinical scores”. The “serum cytokine concentrations and bone erosion” value in data set [1] is “significantly reduced serum cytokine concentrations, as well as bone erosion”. In data set [2], the “efficacy (ACR scores)” value was “efficacy (ACR scores improvement)” and the tolerability entry was “good tolerability”.
Turning to `N=C(NO)NCC[C@H](N)C(=O)O` [N-hydroxy-nor-L-Arg], the tumor growth result in the data set on 3LL lung carcinoma was “blocks growth of s.c. 3LL lung carcinoma in mice”.

For orientation: IC50 means the concentration at which inhibition is half-maximal.

The values above are taken from patent publication US9023851B2 (Merck Patent GmbH, priority 2010, dated 2015).
